According to patent publication US10858360B2, “Tricyclic gyrase inhibitors” (priority 2011, dated 2020):
Values after ≈ are worked out from the molar mass of the structure shown.

Assays:
E. coli ATCC 25922 = assay: MIC, E. coli ATCC 25922; assay type: cell-based; settings: Alamar Blue read after overnight incubation at 35° C.; for MIC Ec: E. coli; for MIC: Escherichia coli, ATCC25922, E. coli
S. aureus ATCC 13709 = assay: MIC, S. aureus ATCC 13709 (Alamar Blue broth microdilution); assay type: cell-based; settings: Alamar Blue read after overnight incubation at 35° C.; for MIC Sa: S. aureus; for MIC: Staphylococcus aureus, ATCC13709, S. aureus

| SMILES | MIC Ec (E. coli ATCC 25922) | MIC Sa (S. aureus ATCC 13709) | MIC (E. coli ATCC 25922) | MIC (S. aureus ATCC 13709) |
| --- | --- | --- | --- | --- |
| CNc1cc(F)cc2c1[nH]c1nc(Oc3cnc(C(C)C)nc3)nc(N3CC4CC(N)C4C3)c12 (stereo not shown) [4.234] | 1 µg/mL (≈ 2.16 µM) | ≤0.5 µg/mL |  |  |
| CNc1cc(F)cc2c1[nH]c1nc(Oc3cnc(C(C)C)nc3)nc(N3CCC4(CC4N)C3)c12 (stereo not shown) [4.235] |  |  | ≤ 0.5 µg/mL | ≤ 0.5 µg/mL |
| CNc1cc(F)cc2c1[nH]c1nc(Oc3cncc(C(N)=O)c3)nc(N3CC4CC(N)C4C3)c12 (stereo not shown) [4.236] |  |  | ≤ 0.5 µg/mL | ≤ 0.5 µg/mL |
| CNc1cc(F)cc2c1[nH]c1nc(Oc3cncc(C(N)=O)c3)nc(N3CC4C(N)C4C3)c12 (stereo not shown) [4.237] |  |  | 2 µg/mL (≈ 4.46 µM) | ≤ 0.5 µg/mL |
| CNc1cc(F)cc2c1[nH]c1nc(Oc3cncc(C(N)=O)c3)nc(N3CC(N)C4(CC4)C3)c12 (stereo not shown) [4.238] | >16 µg/mL | 2 µg/mL (≈ 4.32 µM) |  |  |
| CNc1cc(F)cc2c1[nH]c1nc(Oc3cncc(C(N)=O)c3)nc(N3CC4CC(N)C4C3)c12 (stereo not shown) [4.239] | 8 µg/mL (≈ 17.3 µM) | ≤0.5 µg/mL |  |  |
| CNc1cc(F)cc2c1[nH]c1nc(Oc3cnc(C4CC4)nc3)nc(N3CC4CC(N)C4C3)c12 (stereo not shown) [4.240] |  |  | ≤ 0.5 µg/mL | ≤ 0.5 µg/mL |
| CNc1cc(F)cc2c1[nH]c1nc(Oc3cnc(C4CC4)nc3)nc(N3CC4C(N)C4C3)c12 (stereo not shown) [4.241] | ≤0.5 µg/mL | ≤0.5 µg/mL |  |  |
| CNc1cc(F)cc2c1[nH]c1nc(Oc3cnc(C4CC4)nc3)nc(N3CC(N)C4(CC4)C3)c12 (stereo not shown) [4.242] | ≤0.5 µg/mL | ≤0.5 µg/mL |  |  |
| CNc1cc(F)cc2c1[nH]c1nc(Oc3cnc(C4CC4)nc3)nc(N3CCC(N)C3)c12 (stereo not shown) [4.243] | ≤0.5 µg/mL | ≤0.5 µg/mL |  |  |
| CNc1cc(F)cc2c1[nH]c1nc(Oc3cnc(C4CC4)nc3)nc(N3CC4CC4(CN)C3)c12 (stereo not shown) [4.246] |  |  | ≤ 0.5 µg/mL | ≤ 0.5 µg/mL |
| CNc1cc(F)cc2c1[nH]c1nc(Oc3cnc(C4CC4)nc3)nc(N3CC4NCCCC43)c12 (stereo not shown) [4.247] |  |  | 8 µg/mL (≈ 17.4 µM) | 1 µg/mL (≈ 2.17 µM) |
| CNc1cc(F)cc2c1[nH]c1nc(Oc3cnc(C4CC4)nc3)nc(N3CC4CCNC3C4)c12 (stereo not shown) [4.248] |  |  | ≤ 0.5 µg/mL | ≤ 0.5 µg/mL |
| CNc1cc(F)cc2c1[nH]c1nc(Oc3cnc(C4CC4)nc3)nc(N3CC4C(CN)C4C3)c12 (stereo not shown) [4.249] |  |  | ≤ 0.5 µg/mL | ≤ 0.5 µg/mL |
| CNc1cc(F)cc2c1[nH]c1nc(Oc3cnc(C4CC4)nc3)nc(N3CC4CCNC4C3)c12 (stereo not shown) [4.250] | ≤0.5 µg/mL | ≤0.5 µg/mL |  |  |
| CNc1cc(F)cc2c1[nH]c1nc(Oc3cnc(C4CC4)nc3)nc(N3CC4CCC(CN)C4C3)c12 (stereo not shown) [4.253] |  |  | ≤ 0.5 µg/mL | ≤ 0.5 µg/mL |
| CNc1cc(F)cc2c1[nH]c1nc(Oc3cnc(C4CC4)nc3)nc(N3CC4C[C@@H](N)C4C3)c12 (stereo partly shown) [4.254] |  |  | ≤ 0.5 µg/mL | ≤ 0.5 µg/mL |
| CNc1cc(F)cc2c1[nH]c1nc(Oc3cnc(C4CC4)nc3)nc(N3CC4CCC3C4N)c12 (stereo not shown) [4.256] |  |  | ≤ 0.5 µg/mL | ≤ 0.5 µg/mL |
| CCc1ncc(Oc2nc(N3C[C@H](N)C4(CC4)C3)c3c(n2)[nH]c2c(NC)cc(F)cc23)cn1 [4.259] |  |  | ≤ 0.5 µg/mL | ≤ 0.5 µg/mL |
| CCc1ncc(Oc2nc(N3CC4CC4(CN)C3)c3c(n2)[nH]c2c(NC)cc(F)cc23)cn1 (stereo not shown) [4.261] |  |  | 1 µg/mL (≈ 2.23 µM) | ≤ 0.5 µg/mL |
| CCc1ncc(Oc2nc(N3CCC4(CC4N)C3)c3c(n2)[nH]c2c(NC)cc(F)cc23)cn1 (stereo not shown) [4.263] |  |  | ≤ 0.5 µg/mL | ≤ 0.5 µg/mL |
| CCc1ncc(Oc2nc(N3CC4C[C@@H](N)C4C3)c3c(n2)[nH]c2c(NC)cc(F)cc23)cn1 (stereo partly shown) [4.264] |  |  | ≤ 0.5 µg/mL | ≤ 0.5 µg/mL |
| CNc1cc(F)cc2c1[nH]c1nc(Oc3ccc4c(c3)C(=O)NC4)nc(N3C[C@H](N)C4(CC4)C3)c12 [4.265] |  |  | 4 µg/mL (≈ 8.45 µM) | ≤ 0.5 µg/mL |
| CNc1cc(F)cc2c1[nH]c1nc(Oc3ccc4c(c3)C(=O)NC4)nc(N3CCC4(CC4N)C3)c12 (stereo not shown) [4.266] | 1 µg/mL (≈ 2.11 µM) | ≤0.5 µg/mL |  |  |
| CNc1cc(F)cc2c1[nH]c1nc(Oc3ccc4c(c3)C(=O)NC4)nc(N3CC4[C@H](C[C@H]4N)C3)c12 (stereo partly shown) [4.267] |  |  | 4 µg/mL (≈ 8.45 µM) | ≤ 0.5 µg/mL |
| CNc1cc(F)cc2c1[nH]c1nc(Oc3ccc4c(c3)C(=O)NC4)nc(N3CC4CCNC4C3)c12 (stereo not shown) [4.269] | 4 µg/mL (≈ 8.45 µM) | ≤0.5 µg/mL |  |  |
| CNc1cc(F)cc2c1[nH]c1nc(Oc3ccc4c(c3)C(=O)NC4)nc(N3CC4(CCC4N)C3)c12 (stereo not shown) [4.270] | 2 µg/mL (≈ 4.22 µM) | ≤0.5 µg/mL |  |  |

| SMILES | MIC Ec (E. coli ATCC 25922) | MIC Sa (S. aureus ATCC 13709) | MIC (E. coli ATCC 25922) | MIC (S. aureus ATCC 13709) |
| --- | --- | --- | --- | --- |
| CNc1cc(F)cc2c1[nH]c1nc(Oc3cncc(Cl)c3)nc(N3CC4CC(N)C4C3)c12 (stereo not shown) [4.271] | ≤0.5 µg/mL | ≤0.5 µg/mL |  |  |
| CNc1cc(F)cc2c1[nH]c1nc(Oc3cncc(Cl)c3)nc(N3CC4C(N)C4C3)c12 (stereo not shown) [4.272] |  |  | ≤ 0.5 µg/mL | ≤ 0.5 µg/mL |
| CNc1cc(F)cc2c1[nH]c1nc(Oc3cncc(Cl)c3)nc(N3CC(N)C4(CC4)C3)c12 (stereo not shown) [4.273] | 2 µg/mL (≈ 4.41 µM) | ≤0.5 µg/mL |  |  |
| CNc1cc(F)cc2c1[nH]c1nc(Oc3cncc(Cl)c3)nc(N3CC4C[C@@H](N)C4C3)c12 (stereo partly shown) [4.274] |  |  | ≤ 0.5 µg/mL | ≤ 0.5 µg/mL |
| CNc1cc(F)cc2c1[nH]c1nc(Oc3cncc(Cl)c3)nc(N3CC4(CCC4N)C3)c12 (stereo not shown) [4.275] | ≤0.5 µg/mL | ≤0.5 µg/mL |  |  |
| CNc1cc(F)cc2c1[nH]c1nc(Oc3cncc(Cl)c3)nc(N3CC4CC3CC4N)c12 (stereo not shown) [4.276] | 8 µg/mL (≈ 17.6 µM) | ≤0.5 µg/mL |  |  |
| CNc1cc(F)cc2c1[nH]c1nc(Oc3cncc(Cl)c3)nc(N3CC(N)C3)c12 [4.277] |  |  | ≤ 0.5 µg/mL | ≤ 0.5 µg/mL |
| CNc1cc(F)cc2c1[nH]c1nc(Oc3cncc(Cl)c3)nc(N3CCC4(C[C@H]4N)C3)c12 (stereo partly shown) [4.278] |  |  | ≤ 0.5 µg/mL | ≤ 0.5 µg/mL |
| CNc1cc(F)cc2c1[nH]c1nc(Oc3cncc(Cl)c3)nc(N3CC4CC3CC4N)c12 (stereo not shown) [4.279] | ≤0.5 µg/mL | ≤0.5 µg/mL |  |  |
| CNc1cc(F)cc2c1[nH]c1nc(Oc3cnc(C(F)(F)F)nc3)nc(N3C[C@@H]4[C@@H](N)[C@@H]4C3)c12 [4.280] |  |  | ≤ 0.5 µg/mL | ≤ 0.5 µg/mL |
| CNc1cc(F)cc2c1[nH]c1nc(Oc3cncc(Br)c3)nc(N3CC4CC(N)C4C3)c12 (stereo not shown) [4.283] | ≤0.5 µg/mL | ≤0.5 µg/mL |  |  |
| CNc1cc(F)cc2c1[nH]c1nc(Oc3cncc(Br)c3)nc(N3CC4CC3CC4N)c12 (stereo not shown) [4.284] | ≤0.5 µg/mL | ≤0.5 µg/mL |  |  |
| CNc1cc(F)cc2c1[nH]c1nc(Oc3cnc(C4CCC4)nc3)nc(N3CC4CC(N)C4C3)c12 (stereo not shown) [4.285] |  |  | ≤ 0.5 µg/mL | ≤ 0.5 µg/mL |
| CNc1cc(F)cc2c1[nH]c1nc(Oc3cnc(C4CCC4)nc3)nc(N3CC4C(N)C4C3)c12 (stereo not shown) [4.286] |  |  | ≤ 0.5 µg/mL | ≤ 0.5 µg/mL |
| CNc1cc(F)cc2c1[nH]c1nc(Oc3cnc(C4CCC4)nc3)nc(N3C[C@H](N)C4(CC4)C3)c12 [4.287] |  |  | ≤ 0.5 µg/mL | ≤ 0.5 µg/mL |
| CNc1cc(F)cc2c1[nH]c1nc(Oc3ccc4c(N)nc(C)nc4c3)nc(N3CC4C(N)C4C3)c12 (stereo not shown) [4.288] | >16 µg/mL | 4 µg/mL (≈ 8.24 µM) |  |  |
| CNc1cc(F)cc2c1[nH]c1nc(Oc3cnc4ccoc4c3)nc(N3CC4CC(N)C4C3)c12 (stereo not shown) [4.290] |  |  | ≤ 0.5 µg/mL | ≤ 0.5 µg/mL |
| CNc1cc(F)cc2c1[nH]c1nc(Oc3cnc4ccoc4c3)nc(N3CC4C(N)C4C3)c12 (stereo not shown) [4.291] |  |  | ≤ 0.5 µg/mL | ≤ 0.5 µg/mL |
| CNc1cc(F)cc2c1[nH]c1nc(Oc3cnc4ccoc4c3)nc(N3CC(N)C4(CC4)C3)c12 (stereo not shown) [4.292] | ≤0.5 µg/mL | ≤0.5 µg/mL |  |  |
| CNc1cc(F)cc2c1[nH]c1nc(Oc3cnc4ccoc4c3)nc(N3CC4CCC(N)C4C3)c12 (stereo not shown) [4.293] | 1 µg/mL (≈ 2.11 µM) | ≤0.5 µg/mL |  |  |
| CNc1cc(F)cc2c1[nH]c1nc(Oc3cnc4c(c3)OCCO4)nc(N3CC4CC(N)C4C3)c12 (stereo not shown) [4.294] |  |  | 1 µg/mL (≈ 2.09 µM) | ≤ 0.5 µg/mL |
| CNc1cc(F)cc2c1[nH]c1nc(Oc3cnc4c(c3)OCCO4)nc(N3C[C@H](N)C4(CC4)C3)c12 [4.295] |  |  | ≤ 0.5 µg/mL | ≤ 0.5 µg/mL |
| CNc1cc(F)cc2c1[nH]c1nc(Oc3cnc(N4CCC4)nc3)nc(N3C[C@H](N)C4(CC4)C3)c12 [4.297] |  |  | ≤ 0.5 µg/mL | ≤ 0.5 µg/mL |
| CNc1cc(F)cc2c1[nH]c1nc(Oc3cnc(N4CC(O)C4)nc3)nc(N3CC4C(N)C4C3)c12 (stereo not shown) [4.298] |  |  | 2 µg/mL (≈ 4.19 µM) | ≤ 0.5 µg/mL |
| CNc1cc(F)cc2c1[nH]c1nc(Oc3cnc(N4CC(O)C4)nc3)nc(N3C[C@H](N)C4(CC4)C3)c12 [4.299] |  |  | 4 µg/mL (≈ 8.14 µM) | ≤ 0.5 µg/mL |
| CNc1cc(F)cc2c1[nH]c1nc(Oc3ccc4c(c3)C(=O)NCC4)nc(N3CCC4(CC4N)C3)c12 (stereo not shown) [4.300] | ≤0.5 µg/mL | ≤0.5 µg/mL |  |  |
